The results in this text go back to ChEMBL document CHEMBL3991947, “D-serine transporter inhibitors as pharmaceutical compositions for the treatment of central nervous system disorders” (2014).

The target of this assay is T1, Amino acid transporter (Rattus norvegicus) (UniProt Q9Z1J7).
T1 sequence (whole entry): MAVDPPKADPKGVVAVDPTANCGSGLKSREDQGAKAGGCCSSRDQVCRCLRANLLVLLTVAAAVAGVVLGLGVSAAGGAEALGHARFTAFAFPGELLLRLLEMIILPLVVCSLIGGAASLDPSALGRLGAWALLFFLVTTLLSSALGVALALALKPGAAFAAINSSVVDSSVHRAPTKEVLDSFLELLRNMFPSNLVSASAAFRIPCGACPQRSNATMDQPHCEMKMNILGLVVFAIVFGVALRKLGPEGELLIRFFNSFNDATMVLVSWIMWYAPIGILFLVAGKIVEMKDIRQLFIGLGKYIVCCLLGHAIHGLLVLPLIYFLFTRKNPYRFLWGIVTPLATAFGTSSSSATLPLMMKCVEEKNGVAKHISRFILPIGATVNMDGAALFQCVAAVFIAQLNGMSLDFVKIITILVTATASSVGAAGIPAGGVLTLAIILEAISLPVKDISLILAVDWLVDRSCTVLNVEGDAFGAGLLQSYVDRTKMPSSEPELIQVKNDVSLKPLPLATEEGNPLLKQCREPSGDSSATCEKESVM
Put plainly: Inhibition of ASCT2 mediated [3H]-D-serine uptake in rat hippocampal astrocytes at 1 mM after 5 mins by beta counting analysis. In kind it is cell-based.
As a reminder, the inhibition is the percentage by which the read-out fell short of the control. In the case of `O=C(O)[C@@H]1NCC[C@H]1Cc1ccccc1`, the inhibition was > 25%.

Turning to `C#CCC[C@H](N)C(=O)O`, the inhibition is > 25%.

As to `N[C@@H](Cc1c[nH]c2ccccc12)C(=O)O`, the inhibition was > 25%.

On to `NC1(C(=O)O)CC1`, for which the inhibition was > 25%.

Turning to `N[C@H](C(=O)O)c1ccc(C(F)(F)F)cc1`, the inhibition is > 25%.

As for `O=C(O)C1C[C@@H](Cc2cccc(F)c2)CN1` (single isomer, unassigned), the inhibition was > 25%.

In the case of `O=C(O)[C@@H]1C[C@H](Cc2cccc(Cl)c2)CN1`, the inhibition is > 25%.

Consider `O=C(O)[C@@H]1Cc2ccccc2CN1`, for which the inhibition is > 25%.

For the molecule `NC(C(=O)O)c1cccc(C(F)(F)F)c1` (configuration not stated), the inhibition is > 25%.

Take `Nc1ccccc1C(=O)C[C@H](N)C(=O)O`: the inhibition is > 25%.

As for `CC(=O)OC[C@H](N)C(=O)O`, the inhibition is > 25%.

Take `CCC[C@H](N)C(=O)O`: the inhibition is > 25%.

Regarding `N[C@@H](CS)C(=O)O`, the inhibition is > 25%.

As for `O=C(O)C1C[C@@H](Cc2ccc(Br)cc2)CN1` (single isomer, unassigned), the inhibition was > 25%.

On to `NC(Cc1c[nH]c2cc(F)ccc12)C(=O)O` (configuration not stated), for which the inhibition was > 25%.

`NC(Cc1c[nH]c2cccc(F)c12)C(=O)O` (configuration not stated): the inhibition is > 25%.

Regarding `Nc1ccccc1C(=O)C[C@@H](N)C(=O)O`, the inhibition was > 25%.

In the case of `O=C(O)C1C[C@@H](Cc2ccc(Cl)cc2Cl)CN1` (single isomer, unassigned), the inhibition is > 25%.

`O=C(O)C1C[C@@H](Cc2ccc(I)cc2)CN1` (single isomer, unassigned): the inhibition was > 25%.

For the molecule `COC(=O)CC[C@H](N)C(=O)O`, the inhibition is > 25%.

Regarding `N#Cc1ccc(C[C@H]2CNC(C(=O)O)C2)cc1` (single isomer, unassigned), the inhibition is > 25%.

On to `[N-]=[N+]=NCC[C@H](N)C(=O)O`, for which the inhibition is > 25%.

For the molecule `N[C@H]1CCOC1=O`, the inhibition was > 25%.

`O=C(O)C1C[C@@H](Cc2ccc(Cl)cc2)CN1` (single isomer, unassigned): the inhibition was > 25%.

Turning to `CCOC(=O)CC(N)C(=O)O` (configuration not stated), the inhibition is > 25%.

As to `CC[C@H](N)C(=O)O`, the inhibition was > 25%.

Regarding `O=C(O)[C@@H]1C[C@@H](Oc2cccc(Cl)c2)CN1`, the inhibition was > 25%.

In the case of `O=C(O)[C@H]1C[C@@H](F)CN1`, the inhibition was > 25%.

In the case of `O=C(O)C1C[C@@H](Cc2ccc([N+](=O)[O-])cc2)CN1` (single isomer, unassigned), the inhibition was > 25%.

For the molecule `C[C@H]1CCN[C@@H]1C(=O)O`, the inhibition was > 25%.

Regarding `Cc1ccc(C[C@H]2CNC(C(=O)O)C2)cc1` (single isomer, unassigned), the inhibition is > 25%.

In the case of `NC(C(=O)O)C1CC2C=CC1C2` (configuration not stated), the inhibition is > 25%.

As for `N[C@H](C(=O)O)c1cccc2ccccc12`, the inhibition was > 25%.

For the molecule `N[C@@H](CCC(=O)Nc1ccc2ccccc2c1)C(=O)O`, the inhibition is > 25%.

`NC(C(=O)O)C(O)c1cccs1` (racemic): the inhibition was > 25%.

As for `NC(C(=O)O)c1cccc(Br)c1` (configuration not stated), the inhibition is > 25%.

For the molecule `CC(O)[C@H](C)[C@H](N)C(=O)O` (some centres not stated), the inhibition was > 25%.

In the case of `O=C(O)c1cc2sccc2[nH]1`, the inhibition was > 25%.

In the case of `N[C@@H](CO)C(=O)Nc1ccc2ccccc2c1`, the inhibition was > 25%.

As to `CSC[C@H](N)C(=O)O`, the inhibition was > 25%.

In the case of `Cc1cc(C(N)C(=O)O)ccc1F` (configuration not stated), the inhibition was > 25%.

As for `CNC[C@H](N)C(=O)O`, the inhibition was > 25%.

As for `O=C(O)[C@@H]1C[C@@H](F)CN1`, the inhibition is > 25%.

With `O=C(O)[C@H]1NCCC1c1ccccc1` (some centres not stated), the inhibition is > 25%.

For the molecule `C=CC[C@H]1CNC(C(=O)O)C1` (single isomer, unassigned), the inhibition is > 25%.

For `Cc1ccc(C(N)C(=O)O)cc1Cl` (configuration not stated), the inhibition is > 25%.

In the case of `NC(C(=O)O)c1ccc2c(c1)OCO2` (configuration not stated), the inhibition is > 25%.

Turning to `N[C@H](CCO)C(=O)O`, the inhibition is > 25%.

On to `CCSC[C@H](N)C(=O)O`, for which the inhibition is > 25%.

As for `NC(C(=O)O)c1ccccc1O` (configuration not stated), the inhibition is > 25%.

Consider `C=CCC(N)C(=O)O` (configuration not stated), for which the inhibition was > 25%.

With `NC(C(=O)O)c1cccc(F)c1` (configuration not stated), the inhibition is > 25%.

Consider `O=C(O)[C@@H]1C[C@@H](Cc2ccccn2)CN1`, for which the inhibition is > 25%.

On to `O=C(O)C1C[C@@H](Cc2csc3ccccc23)CN1` (single isomer, unassigned), for which the inhibition was > 25%.

`O=C(O)[C@H]1NCC[C@@H]1c1ccccc1`: the inhibition was > 25%.

For the molecule `O=C(O)[C@@H]1C[C@@H](Cc2ccco2)CN1`, the inhibition is > 25%.

With `NC(C(=O)O)c1ccccc1Cl` (configuration not stated), the inhibition was > 25%.

Turning to `NC(C(=O)O)c1ccc(C(=O)O)c(O)c1` (configuration not stated), the inhibition is > 25%.

As to `CC(C)(S)[C@H](N)C(=O)O`, the inhibition is > 25%.

As to `O=C(O)C1C[C@@H](Cc2cccc3ccccc23)CN1` (single isomer, unassigned), the inhibition is > 25%.

`CC(C)(C)OC(=O)N1C[C@H](C/C=C/c2ccccc2)C[C@H]1C(=O)O`: the inhibition is > 25%.

Take `NC(C(=O)O)c1cc(O)ccc1Cl` (configuration not stated): the inhibition is > 25%.

On to `O=C(O)/C(=C/c1c(C(=O)O)[nH]c2cc(Cl)cc(Cl)c12)c1ccccc1`, for which the inhibition was > 25%.

Consider `N[C@@H](CCc1ccccc1)C(=O)O`, for which the inhibition is > 25%.

With `O=C(O)C1C[C@@H](Cc2ccc(F)c(F)c2)CN1` (single isomer, unassigned), the inhibition is > 25%.

Turning to `NC(CCC(=O)Nc1ccccc1)C(=O)O` (configuration not stated), the inhibition was > 25%.

For `NC(CC(=O)c1ccccc1)C(=O)O` (configuration not stated), the inhibition was > 25%.

As for `O=C(O)C1C[C@@H](Cc2ccsc2)CN1` (single isomer, unassigned), the inhibition is > 25%.

For `O=C(Nc1cccc2ccccc12)[C@@H]1C[C@@H](O)CN1`, the inhibition is > 25%.

For `COc1ccc(C(N)C(=O)O)cc1` (configuration not stated), the inhibition was > 25%.

With `NC(C(=O)O)C1C2CC3CC(C2)CC1C3` (configuration not stated), the inhibition was > 25%.

For `O=C(O)[C@@H]1CN1`, the inhibition was > 25%.

For the molecule `O=C(Nc1ccc2ccccc2c1)[C@@H]1CCCN1`, the inhibition was > 25%.

With `N[C@@H](CCC(=O)NO)C(=O)O`, the inhibition was > 25%.

For the molecule `N[C@@H](Cc1ccc(O)cc1)C(=O)O`, the inhibition is > 25%.

With `N[C@@H](Cc1csc2ccccc12)C(=O)O`, the inhibition was > 25%.

On to `N[C@@H](CCS)C(=O)O`, for which the inhibition was > 25%.

For `NCC(=O)O`, the inhibition was > 25%.

Take `N[C@@H](CC1CCCC1)C(=O)O`: the inhibition is > 25%.

Turning to `NC(C(=O)O)c1ccc(F)c(Cl)c1` (configuration not stated), the inhibition is > 25%.

Regarding `COCC(N)C(=O)O` (racemic), the inhibition was > 25%.

In the case of `CNC(C(=O)O)c1ccc(OC)cc1` (configuration not stated), the inhibition is > 25%.

Turning to `N#Cc1ccccc1C[C@H]1CNC(C(=O)O)C1` (single isomer, unassigned), the inhibition was > 25%.

For `N[C@@H](Cc1c[nH]c2ccc(F)cc12)C(=O)O`, the inhibition was > 25%.

Take `N[C@@H](Cc1ccc(O)c(O)c1)C(=O)O`: the inhibition is > 25%.

Take `C[C@H](O)[C@H](N)C(=O)O`: the inhibition is > 25%.

Consider `N[C@@H](Cn1oc(=O)[nH]c1=O)C(=O)O`, for which the inhibition was > 25%.

`C[C@@H](N)C(=O)O`: the inhibition was > 25%.

Take `Nc1c(O)cccc1C(=O)CC(N)C(=O)O` (configuration not stated): the inhibition was > 25%.

In the case of `N[C@@H](CCCc1ccccc1)C(=O)O`, the inhibition was > 25%.

`N[C@@H](Cc1cccs1)C(=O)O`: the inhibition is > 25%.

Consider `NC(C(=O)O)c1cccc([N+](=O)[O-])c1` (configuration not stated), for which the inhibition was > 25%.

As to `Cc1ccccc1C[C@H]1CNC(C(=O)O)C1` (single isomer, unassigned), the inhibition was > 25%.

Consider `N[C@@H](C(=O)O)C1=CCC=CC1`, for which the inhibition was > 25%.

With `NC1(C(=O)O)CCC1`, the inhibition was > 25%.

Consider `O=C(O)[C@@H]1C[C@@H](Cc2ccccc2C(F)(F)F)CN1`, for which the inhibition is > 25%.

As to `N[C@@H](CCC(=O)Nc1cccc2ccccc12)C(=O)O`, the inhibition was > 25%.

As for `N[C@H](C(=O)O)c1ccsc1`, the inhibition was > 25%.

In the case of `C#CC[C@H]1CN[C@H](C(=O)O)C1`, the inhibition was > 25%.

In the case of `O=C(O)C1C[C@@H](Cc2ccccc2I)CN1` (single isomer, unassigned), the inhibition is > 25%.

Regarding `NC(C(=O)O)C12CC3CC(CC(C3)C1)C2` (configuration not stated), the inhibition was > 25%.

As to `O=C(O)[C@@H]1NCC[C@H]1Cc1ccc(F)cc1`, the inhibition was > 25%.

With `O=C(O)C1C[C@@H](Cc2cccc(C(F)(F)F)c2)CN1` (single isomer, unassigned), the inhibition is > 25%.

Turning to `NC(C(=O)O)c1ccc(O)c(O)c1` (configuration not stated), the inhibition was > 25%.

On to `O=C(O)[C@@H]1C=CCN1`, for which the inhibition is > 25%.

With `N[C@@H](CC(=O)OCc1ccccc1)C(=O)O`, the inhibition is > 25%.

For `O=C(O)C1C[C@@H](Cc2cccc(Br)c2)CN1` (single isomer, unassigned), the inhibition was > 25%.
